Values joined by “and” are separate entries in the source; they are usually repeats but may differ in a detail not shown here. Equal values may be shown once. Active and inactive are the calls of the source.
Legend:
Cytochrome P450 2D6 = Cytochrome P450 2D6 (Homo sapiens, UniProt P10635);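 also: CYP2D6 member of a cytochrome P450 panel assay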
Cytochrome P450 1A2 = target: T1, Cytochrome P450 1A2 (Homo sapiens, UniProt P05177);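 also: PubChem cytochrome P450 panel assay, CYP1A2 panel member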
T1 sequence (P05177 whole entry): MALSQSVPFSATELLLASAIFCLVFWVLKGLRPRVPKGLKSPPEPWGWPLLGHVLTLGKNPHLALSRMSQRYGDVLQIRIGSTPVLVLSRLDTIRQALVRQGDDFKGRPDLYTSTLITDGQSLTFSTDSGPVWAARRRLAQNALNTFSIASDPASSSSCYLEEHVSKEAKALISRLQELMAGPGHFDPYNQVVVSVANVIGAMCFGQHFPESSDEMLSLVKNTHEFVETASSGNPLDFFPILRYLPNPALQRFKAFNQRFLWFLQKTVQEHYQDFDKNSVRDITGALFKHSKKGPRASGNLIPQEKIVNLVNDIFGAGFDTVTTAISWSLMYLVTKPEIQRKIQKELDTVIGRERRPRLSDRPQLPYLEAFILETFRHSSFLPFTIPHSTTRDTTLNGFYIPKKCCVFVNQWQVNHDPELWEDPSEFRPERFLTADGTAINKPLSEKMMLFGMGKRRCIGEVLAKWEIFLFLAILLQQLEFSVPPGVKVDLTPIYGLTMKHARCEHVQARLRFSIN

[1] = target: FAD-linked sulfhydryl oxidase ALR (Homo sapiens, UniProt P55789); assay: inhibitors of human ALR sulfhydryl oxidase, dose response, biochemical, H2O2 detection, luminescence, cherry-pick (AID 493248)
FAD-linked sulfhydryl oxidase ALR, sequence (P55789 whole entry): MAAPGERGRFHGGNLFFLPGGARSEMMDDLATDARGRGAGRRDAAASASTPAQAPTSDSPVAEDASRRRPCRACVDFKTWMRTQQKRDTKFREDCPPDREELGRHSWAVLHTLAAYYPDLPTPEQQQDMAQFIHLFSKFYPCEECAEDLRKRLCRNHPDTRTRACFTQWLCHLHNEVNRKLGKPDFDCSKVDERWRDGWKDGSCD

Large T antigen = Large T antigen (Simian virus 40, UniProt P03070); format: functional, Betapolyomavirus macacae;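 also: Confirmatory-stage PubChem screen for compounds that inhibit SV40 T antigen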
Large T antigen, sequence (P03070 whole entry): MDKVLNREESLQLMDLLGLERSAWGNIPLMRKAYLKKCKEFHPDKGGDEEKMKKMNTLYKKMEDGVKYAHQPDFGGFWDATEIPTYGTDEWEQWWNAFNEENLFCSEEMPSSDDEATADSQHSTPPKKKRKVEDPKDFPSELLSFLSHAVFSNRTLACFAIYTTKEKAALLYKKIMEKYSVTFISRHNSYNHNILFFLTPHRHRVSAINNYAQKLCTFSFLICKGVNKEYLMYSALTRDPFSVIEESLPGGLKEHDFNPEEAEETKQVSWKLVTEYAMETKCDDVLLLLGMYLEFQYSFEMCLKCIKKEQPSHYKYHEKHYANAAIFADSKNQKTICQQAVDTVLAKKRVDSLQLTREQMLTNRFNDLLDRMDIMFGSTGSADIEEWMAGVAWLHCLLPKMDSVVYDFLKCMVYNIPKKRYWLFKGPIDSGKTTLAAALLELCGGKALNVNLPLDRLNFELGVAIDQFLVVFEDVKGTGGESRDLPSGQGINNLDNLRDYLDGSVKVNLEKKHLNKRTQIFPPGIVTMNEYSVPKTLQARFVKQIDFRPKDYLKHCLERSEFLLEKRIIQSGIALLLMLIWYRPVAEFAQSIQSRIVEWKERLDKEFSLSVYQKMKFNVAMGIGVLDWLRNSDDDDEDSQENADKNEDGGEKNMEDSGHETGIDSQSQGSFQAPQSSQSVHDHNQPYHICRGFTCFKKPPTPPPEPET

Cytochrome P450 3A4 = Cytochrome P450 3A4 (Homo sapiens, UniProt P08684);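 also: CYP3A4 tested as one member of a cytochrome P450 panel screen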
Cytochrome P450 3A4, sequence (P08684 whole entry): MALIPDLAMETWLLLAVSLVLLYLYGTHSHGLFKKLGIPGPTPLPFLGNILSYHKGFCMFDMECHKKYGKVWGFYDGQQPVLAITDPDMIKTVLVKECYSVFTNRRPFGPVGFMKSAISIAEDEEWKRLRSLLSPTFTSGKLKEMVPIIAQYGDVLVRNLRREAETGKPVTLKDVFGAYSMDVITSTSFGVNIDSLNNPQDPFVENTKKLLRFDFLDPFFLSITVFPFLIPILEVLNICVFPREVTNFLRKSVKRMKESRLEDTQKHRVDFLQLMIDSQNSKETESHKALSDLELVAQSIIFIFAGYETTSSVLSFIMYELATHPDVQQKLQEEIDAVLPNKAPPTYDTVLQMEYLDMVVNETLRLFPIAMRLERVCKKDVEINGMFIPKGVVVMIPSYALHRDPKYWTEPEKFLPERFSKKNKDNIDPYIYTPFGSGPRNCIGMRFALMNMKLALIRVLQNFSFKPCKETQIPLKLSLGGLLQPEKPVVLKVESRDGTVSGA

Cytochrome P450 2C19 = Cytochrome P450 2C19 (Homo sapiens, UniProt P33261); assay: Cytochrome panel assay with activity outcomes. Panel member name: p450-cyp2c19 Compounds with AC50 equal or less than 10 uM are considered active; format: functional
Cytochrome P450 2C19, sequence (P33261 whole entry): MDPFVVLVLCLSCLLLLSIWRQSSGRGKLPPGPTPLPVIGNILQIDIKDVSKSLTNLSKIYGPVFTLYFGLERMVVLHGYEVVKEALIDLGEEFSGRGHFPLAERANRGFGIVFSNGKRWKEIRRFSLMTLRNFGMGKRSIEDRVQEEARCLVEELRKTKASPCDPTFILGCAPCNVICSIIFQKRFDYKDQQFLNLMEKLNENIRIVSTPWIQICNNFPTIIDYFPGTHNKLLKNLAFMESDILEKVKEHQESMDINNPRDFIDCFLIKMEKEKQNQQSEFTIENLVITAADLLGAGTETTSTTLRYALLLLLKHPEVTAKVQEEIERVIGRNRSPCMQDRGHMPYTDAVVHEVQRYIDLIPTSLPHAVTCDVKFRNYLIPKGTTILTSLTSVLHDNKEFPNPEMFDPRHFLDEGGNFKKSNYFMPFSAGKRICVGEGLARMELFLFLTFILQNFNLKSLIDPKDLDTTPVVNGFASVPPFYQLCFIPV

Cytochrome P450 2C9 [2] = target: T2, Cytochrome P450 2C9 (Homo sapiens, UniProt P11712)
T2 sequence (P11712 whole entry): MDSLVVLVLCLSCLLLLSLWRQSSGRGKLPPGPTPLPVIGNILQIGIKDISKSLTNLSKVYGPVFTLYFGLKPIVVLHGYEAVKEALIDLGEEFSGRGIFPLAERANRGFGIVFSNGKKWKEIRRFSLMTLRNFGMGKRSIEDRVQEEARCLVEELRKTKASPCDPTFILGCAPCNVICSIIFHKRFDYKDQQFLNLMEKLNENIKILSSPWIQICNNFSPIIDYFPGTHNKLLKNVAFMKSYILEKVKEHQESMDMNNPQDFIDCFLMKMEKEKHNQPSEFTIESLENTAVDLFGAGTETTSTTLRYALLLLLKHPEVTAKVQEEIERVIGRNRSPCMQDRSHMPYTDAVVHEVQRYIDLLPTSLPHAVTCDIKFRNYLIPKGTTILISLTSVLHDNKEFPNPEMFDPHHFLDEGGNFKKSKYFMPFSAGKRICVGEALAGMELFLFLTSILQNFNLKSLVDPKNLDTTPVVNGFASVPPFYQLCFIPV

[3] = NIH-3T3 fibroblast cytotoxicity, dose response, cytotoxicity control, cell-based, fluorescence, Alamar Blue, secondary assay (AID 2327); format: functional;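 also: NIH-3T3 mouse fibroblasts cultured with fluconazole at 8 µg/mL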
[4] = C. albicans growth with fluconazole, confirmation, fluorescence, retest (AID 2467); format: functional, cell-based
[5] = target: T3, Replicative DNA helicase DnaB (Mycobacterium tuberculosis, UniProt P9WMR3); assay: DnaB intein splicing inhibitors, dose response, biochemical, cell-free fluorescence (AID 449749); format: functional
T3 sequence (P9WMR3 whole entry): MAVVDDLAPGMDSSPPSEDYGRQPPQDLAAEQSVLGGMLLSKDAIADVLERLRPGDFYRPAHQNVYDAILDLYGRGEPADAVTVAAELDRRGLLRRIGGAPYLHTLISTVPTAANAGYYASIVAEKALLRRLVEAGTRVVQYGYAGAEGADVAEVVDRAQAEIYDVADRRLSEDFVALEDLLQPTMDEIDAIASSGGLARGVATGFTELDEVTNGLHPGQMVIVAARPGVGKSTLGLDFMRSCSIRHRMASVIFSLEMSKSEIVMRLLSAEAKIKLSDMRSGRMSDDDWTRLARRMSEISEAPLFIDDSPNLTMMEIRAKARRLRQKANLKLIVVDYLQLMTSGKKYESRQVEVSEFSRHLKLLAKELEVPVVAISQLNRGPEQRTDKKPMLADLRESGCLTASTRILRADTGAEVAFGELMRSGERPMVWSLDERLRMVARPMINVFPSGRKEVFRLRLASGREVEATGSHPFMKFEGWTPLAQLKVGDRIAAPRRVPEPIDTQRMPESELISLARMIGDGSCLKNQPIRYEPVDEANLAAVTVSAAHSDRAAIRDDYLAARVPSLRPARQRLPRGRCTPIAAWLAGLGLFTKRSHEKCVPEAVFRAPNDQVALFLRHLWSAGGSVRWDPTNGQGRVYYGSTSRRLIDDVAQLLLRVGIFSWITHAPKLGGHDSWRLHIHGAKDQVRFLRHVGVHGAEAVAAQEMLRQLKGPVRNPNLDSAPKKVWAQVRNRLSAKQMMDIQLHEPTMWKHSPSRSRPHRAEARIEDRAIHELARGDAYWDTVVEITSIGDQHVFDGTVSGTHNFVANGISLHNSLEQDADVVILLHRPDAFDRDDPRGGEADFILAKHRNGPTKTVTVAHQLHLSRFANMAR

Protein RecA = target: T4, Protein RecA (Mycobacterium tuberculosis, UniProt P9WHJ3); assay: Fluorescence Cell-Free Homogeneous Dose Retest to Identify Inhibitors of RecA-Intein Splicing Activity. [Related pubchem assays (depositor defined):AID2097, AID2223, AID489010, AID492950]; format: functional
T4 sequence (P9WHJ3 whole entry): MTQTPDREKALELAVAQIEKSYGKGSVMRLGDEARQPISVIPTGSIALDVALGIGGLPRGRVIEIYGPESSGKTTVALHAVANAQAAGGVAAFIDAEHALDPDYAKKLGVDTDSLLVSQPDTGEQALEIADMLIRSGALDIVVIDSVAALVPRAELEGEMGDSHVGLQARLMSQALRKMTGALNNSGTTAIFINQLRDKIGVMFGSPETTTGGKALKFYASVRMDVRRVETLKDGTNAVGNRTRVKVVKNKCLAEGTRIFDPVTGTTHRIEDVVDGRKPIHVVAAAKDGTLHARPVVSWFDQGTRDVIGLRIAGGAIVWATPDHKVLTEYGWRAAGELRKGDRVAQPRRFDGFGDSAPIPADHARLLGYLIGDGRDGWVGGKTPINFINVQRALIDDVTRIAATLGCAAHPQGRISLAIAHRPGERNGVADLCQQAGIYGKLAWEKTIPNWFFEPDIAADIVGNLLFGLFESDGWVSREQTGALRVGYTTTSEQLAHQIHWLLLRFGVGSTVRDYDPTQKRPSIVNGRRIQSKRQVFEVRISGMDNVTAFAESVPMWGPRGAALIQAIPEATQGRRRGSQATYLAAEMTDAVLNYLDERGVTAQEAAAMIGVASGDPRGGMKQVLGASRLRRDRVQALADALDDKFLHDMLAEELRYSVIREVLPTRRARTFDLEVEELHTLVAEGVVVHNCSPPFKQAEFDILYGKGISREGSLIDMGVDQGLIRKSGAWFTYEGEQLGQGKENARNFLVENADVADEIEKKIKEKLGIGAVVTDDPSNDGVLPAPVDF

Cytochrome P450 2C9 [6] = target: T2, Cytochrome P450 2C9; remark: listed apart in the source
[7] = P. falciparum Dd2 growth inhibitors, dose response, SYBR Green, cherry-picked samples (AID 1159567); format: functional, cell-based

Cytochrome P450 2D6, sequence (P10635 whole entry): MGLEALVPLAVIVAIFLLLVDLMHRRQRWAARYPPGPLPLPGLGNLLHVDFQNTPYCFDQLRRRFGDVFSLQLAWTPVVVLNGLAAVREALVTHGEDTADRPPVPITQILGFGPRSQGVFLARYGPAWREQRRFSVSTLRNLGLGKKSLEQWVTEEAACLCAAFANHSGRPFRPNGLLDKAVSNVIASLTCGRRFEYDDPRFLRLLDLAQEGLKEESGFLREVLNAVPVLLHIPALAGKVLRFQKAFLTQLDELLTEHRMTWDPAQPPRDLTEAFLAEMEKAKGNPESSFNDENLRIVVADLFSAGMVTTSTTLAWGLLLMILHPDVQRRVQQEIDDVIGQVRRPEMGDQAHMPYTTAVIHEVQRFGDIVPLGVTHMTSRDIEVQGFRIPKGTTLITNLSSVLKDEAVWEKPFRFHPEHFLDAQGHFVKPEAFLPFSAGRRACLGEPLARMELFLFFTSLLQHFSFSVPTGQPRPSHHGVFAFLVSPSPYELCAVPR

Cc1nn(Cc2c(F)c(F)c(F)c(F)c2F)c(C)c1NC(=O)c1cccc(COc2ccccc2Cl)c1
AC50 (Cytochrome P450 2D6): 0.794 µM (inconclusive) | AC50 (Cytochrome P450 1A2): 17.8 µM (inconclusive)

COc1ccc2cc(CCl)c(Cl)nc2c1
AC50 [1]: 5.78 µM (active)

CC(=O)Nc1ccc(N2CCCCC2)cc1
IC50 (Large T antigen): 13.2 µM (active) | AC50 [1]: 2.96 µM (active) | AC50 (Cytochrome P450 3A4): 0.251 µM (inconclusive)

CC(=O)Nc1ccc(-n2cc(-c3ccccc3)[nH]c2=S)cc1
AC50 [1]: 6.42 µM (active)

O=C(NCc1ccccn1)C(=O)NCC(c1ccco1)N1CCN(c2ccc(F)cc2)CC1 (configuration not stated)
AC50 [1]: 13.2 µM (active)

CN(C)Cc1ccccc1-c1cncnc1NC1CC1
AC50 (Cytochrome P450 2D6): 25.1 µM (inconclusive)

CCOC(=O)N1CCN(C(=O)c2ccc(OC)c(OC)c2)CC1
AC50 (Cytochrome P450 2C19; read-out: AC50): 25.1 µM (inconclusive) | AC50 (Cytochrome P450 2C9 [2]): inconclusive

COc1ccc2nc(Nc3ccccc3OC)sc2c1
AC50 [1]: 1.71 µM (active)

O=C1CSC(c2ccccc2[N+](=O)[O-])N1c1cccc(F)c1 (configuration not stated)
AC50 [1]: 0.689 µM (active)

Cc1cnc(CNc2ncnc3ccc(-c4cccc(NS(C)(=O)=O)c4)cc23)cn1
AC50 (Cytochrome P450 2D6): 25.1 µM (inconclusive) | AC50 (Cytochrome P450 2C9 [2]): inconclusive

N[C@@H](Cc1ncccn1)C(=O)O
AC50 (Cytochrome P450 2C9 [2]): inconclusive

Cc1ccc(S(=O)(=O)NC(CC(C)C)C(=O)Oc2ccc3c4c(c(=O)oc3c2)CCC4)cc1 (configuration not stated)
AC50 (Cytochrome P450 2D6): 15.8 µM (inconclusive)

O=c1c(-c2cc(F)cc(F)c2)nc2cncnc2n1C1CC1
AC50 (Cytochrome P450 3A4): 7.94 µM (inconclusive) | AC50 (Cytochrome P450 2C9 [2]): inconclusive

O=C(CCN1C(=O)c2cccc3cccc(c23)C1=O)N1CCN(Cc2ccc3c(c2)OCO3)CC1
AC50 (Cytochrome P450 2C9 [2]): inconclusive

O=C(NCc1ccco1)c1ccccc1NS(=O)(=O)c1ccc(Br)s1
EC50 [3]: > 160 µM (inactive) | EC50 [4]: 2.35 µM (active) | AC50 (Cytochrome P450 1A2): 14.1 µM (inconclusive)

Cc1nc([N+](=O)[O-])c(Sc2nc3ccccc3[nH]2)n1Cc1ccccc1
AC50 [5]: 15.3 µM (active) | EC50 (Protein RecA): 12.3 µM (active)

CCCC(=O)Nc1ccc(N2CCN(CC)CC2)c(Cl)c1
AC50 (Cytochrome P450 2D6): 20 µM (inconclusive) | AC50 (Cytochrome P450 2C9 [6]): 0.178 µM (inconclusive)

Cc1ccccc1-c1nc(C[S+]([O-])CC(=O)NCCCN(C)c2ccccc2)c(C)o1 (configuration not stated)
AC50 (Cytochrome P450 2D6): 25.1 µM (inconclusive) | AC50 (Cytochrome P450 2C9 [2]): inconclusive

COCc1n[nH]c2c1C(c1ccsc1)C(C#N)=C(N)O2 (configuration not stated)
AC50 [5]: 21.1 µM (active) | EC50 (Protein RecA): 4.35 µM (active)

Cc1cccc(S(=O)(=O)C(C#N)c2nc3ccccc3nc2N2CCCC2)c1 (configuration not stated)
EC50 (Protein RecA): > 380 µM (inactive)

COc1ccc(C)cc1NC(=O)c1cc2cc3ccc(C)cc3nc2o1
AC50 (Cytochrome P450 1A2): 1.26 µM (inconclusive) | AC50 (Cytochrome P450 2C9 [2]): inconclusive

Cc1ccc(-c2csc(N)n2)s1
AC50 [1]: 0.732 µM (active)

CC1CCCC(C)N1C(=O)c1ccccc1Nc1ccc(SC(F)F)cc1 (configuration not stated)
AC50 (Cytochrome P450 2D6): 0.631 µM (inconclusive) | AC50 (Cytochrome P450 1A2): 17.8 µM (inconclusive)

O=C(Nc1ccc(N2CCOCC2)cc1)Nc1ccc2nsnc2c1
AC50 [5]: 170 µM (active) | EC50 (Protein RecA): > 380 µM (inactive)

O=C1OCCC1Sc1nnc(-c2ccc(O)cc2)o1 (configuration not stated)
AC50 (Cytochrome P450 3A4): 7.08 µM (inconclusive) | AC50 (Cytochrome P450 2C9 [2]): inconclusive

COc1ccc(N(C(=O)COc2cccc(C)c2)S(=O)(=O)c2ccc(C)cc2)cc1
AC50 [5]: 4.29 µM (active) | EC50 (Protein RecA): 4.53 µM (active)

CC(=O)Oc1ccc(-c2cccc(C(=O)N(C)c3ccc(O)cc3)c2)cc1
AC50 [1]: 22.9 µM (active)

Cc1nn(-c2ccccc2)c(O)c1/C=N/N1CCOCC1
AC50 [5]: 39.3 µM (active) | EC50 (Protein RecA): 31.7 µM (active)

COC(=O)c1ccc(/N=C2\C(Cl)=C(O)OC2OC(=O)c2ccccc2)cc1 (configuration not stated)
AC50 [5]: 10.9 µM (active) | EC50 (Protein RecA): 17.8 µM (active)

CN(C)c1nc(Oc2ccc(/C=N/O)cc2)nc(N(C)C)n1
AC50 [1]: 0.156 µM (active)

COc1ccccc1NC(=O)N(C)C[C@H]1OCc2ccccc2-c2c(n(C)c3ccccc23)C(=O)N([C@@H](C)CO)C[C@@H]1C
AC50 [7]: 4.25 µM (active)

CCC(=O)Nc1ccc2c(c1)OC[C@@H](C)N(Cc1ccccc1)C[C@@H](C)[C@H](OC)CN(C)C2=O
AC50 [7]: 5.57 µM (active)

COc1ccc2c3c(n(C)c2c1)[C@H](CO)N(C(=O)C1CC1)CC31CN(C(=O)C2CCOCC2)C1
AC50 [7]: 22.6 µM (active)

COCC(=O)Nc1ccc2c(c1)OC[C@H](C)N(Cc1ccncc1)C[C@H](C)[C@@H](OC)CN(C)C2=O
AC50 [7]: 25.2 µM (active)

OC(c1ccccc1)(c1ccccc1)C1CCNCC1 [AZACYCLONOL]
AC50 (Cytochrome P450 2D6): 15.8 µM (inconclusive)

COc1ccc(NC(=O)c2ccc(-c3ccc(-c4noc(C)n4)cc3C)cc2)cc1N1CCN(C)CC1 [GR-127935]
AC50 (Cytochrome P450 2D6): 20 µM (inconclusive) and 39.8 µM (inconclusive)

CCCOc1ccc(C(=O)OCCN(CC)CC)cc1N [PROPARACAINE]
AC50 (Cytochrome P450 2C19): inconclusive | AC50 (Cytochrome P450 2D6): 6.31 µM (inconclusive)
